In patent US9718828B2 (MERCK SHARP & DOHME CORP., priority 2011, dated 2017):
Counter-ions that a name gives are not always drawn.

Each molecule was assayed against Btk enzyme (His-Btk) (Homo sapiens (Human), UniProt Q06187) (assay: Btk enzyme activity, IMAP fluorescence polarization assay (Assay Method A)). Conditions: not given.
Sequence of Btk enzyme (His-Btk) (Q06187 whole entry): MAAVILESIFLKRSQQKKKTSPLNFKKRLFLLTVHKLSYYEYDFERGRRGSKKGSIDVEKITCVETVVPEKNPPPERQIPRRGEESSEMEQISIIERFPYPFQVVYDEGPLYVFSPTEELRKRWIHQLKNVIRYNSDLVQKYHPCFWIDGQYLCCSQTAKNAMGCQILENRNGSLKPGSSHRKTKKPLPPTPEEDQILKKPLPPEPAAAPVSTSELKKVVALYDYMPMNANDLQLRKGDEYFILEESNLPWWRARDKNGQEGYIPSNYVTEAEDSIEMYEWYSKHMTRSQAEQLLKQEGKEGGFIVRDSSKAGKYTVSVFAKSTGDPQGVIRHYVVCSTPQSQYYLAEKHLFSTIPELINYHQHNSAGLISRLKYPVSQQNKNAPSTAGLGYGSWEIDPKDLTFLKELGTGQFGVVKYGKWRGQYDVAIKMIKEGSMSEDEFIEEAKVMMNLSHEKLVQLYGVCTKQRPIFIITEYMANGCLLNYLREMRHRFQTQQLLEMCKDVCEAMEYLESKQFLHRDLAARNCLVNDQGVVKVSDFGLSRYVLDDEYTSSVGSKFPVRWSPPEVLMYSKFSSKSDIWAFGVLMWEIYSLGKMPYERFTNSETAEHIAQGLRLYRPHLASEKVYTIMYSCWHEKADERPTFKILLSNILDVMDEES
COCCC(=O)N1CC[C@@H](c2nc(-c3ccc(C(=O)Nc4ccccn4)cc3)c3c(N)nccn23)C1 [Example 125, (R)-4-(8-amino-3-(1-(3-methoxypropanoyl)pyrrolidin-3-yl)imidazo[1,5-a]pyrazin-1-yl)-N-(pyridin-2-yl)benzamide, TFA salt] was tested, and the EC50 was 100 to 1000 nM. CC1(C(=O)N2CC[C@@H](c3nc(-c4ccc(C(=O)Nc5ccccn5)cc4)c4c(N)nccn34)C2)COC1 [Example 126, (R)-4-(8-amino-3-(1-(3-methyloxetane-3-carbonyl)pyrrolidin-3-yl)imidazo[1,5-a]pyrazin-1-yl)-N-(pyridin-2-yl)benzamide, TFA salt] was tested, and the EC50 was 100 to 1000 nM. CC(C)C(=O)N1CC[C@@H](c2nc(-c3ccc(C(=O)Nc4ccccn4)cc3)c3c(N)nccn23)C1 [Example 127, (R)-4-(8-amino-3-(1-isobutyrylpyrrolidin-3-yl)imidazo[1,5-a]pyrazin-1-yl)-N-(pyridin-2-yl)benzamide, TFA salt] gave an EC50 of 100 to 1000 nM. Nc1nccn2c([C@@H]3CCN(C(=O)C4CCOC4)C3)nc(-c3ccc(C(=O)Nc4ccccn4)cc3)c12 (stereo partly drawn) [Example 128, (R)-4-(8-amino-3-(1-(tetrahydrofuran-3-carbonyl)pyrrolidin-3-yl)imidazo[1,5-a]pyrazin-1-yl)-N-(pyridin-2-yl)benzamide, TFA salt] gave an EC50 of 100 to 1000 nM. Work on CC(C)C(=O)N1CCC(c2nc(-c3ccc(C(=O)Nc4ccccn4)cc3)c3c(N)nccn23)CC1 [Example 129, 4-(8-amino-3-(1-isobutyrylpiperidin-4-yl)imidazo[1,5-a]pyrazin-1-yl)-N-(pyridin-2-yl)benzamide] yielded an EC50 of 100 to 1000 nM. With CC(CNC(=O)C1(C)COC1)c1nc(-c2ccc(C(=O)Nc3cc(C(F)(F)F)ccn3)cc2)c2c(N)nccn12 (stereo not drawn) [Example 131, N-(2-(8-amino-1-(4-(4-(trifluoromethyl)pyridin-2-ylcarbamoyl)phenyl)imidazo[1,5-a]pyrazin-3-yl)propyl)-3-methyloxetane-3-carboxamide] the EC50 was < 10 nM. For CC(CNC(=O)OCc1ccccc1)c1nc(-c2ccc(C(=O)Nc3cc(C(F)(F)F)ccn3)cc2)c2c(N)nccn12 (stereo not drawn) [Example 132, benzyl 2-(8-amino-1-(4-(4-(trifluoromethyl)pyridin-2-ylcarbamoyl)phenyl)imidazo[1,5-a]pyrazin-3-yl)propylcarbamate], the EC50 was 10 to 100 nM. Work on Nc1nccn2c([C@@H]3CCCN(Cc4ccccc4)C3)nc(-c3ccc(C(=O)Nc4ccccn4)cc3)c12 [Example 133, (R)-4-(8-amino-3-(1-benzylpiperidin-3-yl)imidazo[1,5-a]pyrazin-1-yl)-N-(pyridin-2-yl)benzamide] yielded an EC50 of 100 to 1000 nM. Nc1nccn2c([C@@H]3CCCN(CCc4ccccc4)C3)nc(-c3ccc(C(=O)Nc4ccccn4)cc3)c12 [Example 134, (R)-4-(8-amino-3-(1-phenethylpiperidin-3-yl)imidazo[1,5-a]pyrazin-1-yl)-N-(pyridin-2-yl)benzamide, TFA salt] gave an EC50 of 10 to 100 nM. For Nc1nccn2c([C@@H]3CCCN(CCC(F)(F)F)C3)nc(-c3ccc(C(=O)Nc4ccccn4)cc3)c12 [Example 136, (R)-4-(8-amino-3-(1-(3,3,3-trifluoropropyl)piperidin-3-yl)imidazo[1,5-a]pyrazin-1-yl)-N-(pyridin-2-yl)benzamide TFA salt], the EC50 was 10 to 100 nM. CCOC(=O)C1CC1CN1CCC[C@@H](c2nc(-c3ccc(C(=O)Nc4ccccn4)cc3)c3c(N)nccn23)C1 (stereo partly drawn) [Example 137, ethyl 2-(((R)-3-(8-amino-1-(4-(pyridin-2-ylcarbamoyl)phenyl)imidazo [1,5-a]pyrazin-3-yl)piperidin-1-yl)methyl) cyclopropanecarboxylate, TFA salt] showed an EC50 of 100 to 1000 nM. Work on CCN1CCC[C@@H](c2nc(-c3ccc(C(=O)Nc4cc(C(F)(F)F)ccn4)cc3)c3c(N)nccn23)C1 [Example 138, (R)-4-(8-amino-3-(1-ethylpiperidin-3-yl)imidazo[1,5-a]pyrazin-1-yl)-N-(4-(trifluoromethyl)pyridin-2-yl)benzamide, TFA salt] yielded an EC50 of 10 to 100 nM. In the case of Nc1nccn2c([C@@H]3CCCN(CC4CC4)C3)nc(-c3ccc(C(=O)Nc4cc(C(F)(F)F)ccn4)cc3)c12 [Example 140, (R)-4-(8-amino-3-(1-(cyclopropylmethyl)piperidin-3-yl)imidazo[1,5-a]pyrazin-1-yl)-N-(4-(trifluoromethyl)pyridin-2-yl)benzamide, TFA salt], the EC50 is reported as 10 to 100 nM. Nc1nccn2c([C@@H]3CCCN(CC4CCCC4)C3)nc(-c3ccc(C(=O)Nc4cc(C5CC5)ccn4)cc3)c12 [Example 143, (R)-4-(8-amino-3-(1-(cyclopentylmethyl)piperidin-3-yl)imidazo[1,5-a]pyrazin-1-yl)-N-(4-cyclopropylpyridin-2-yl)benzamide, TFA salt] showed an EC50 of 10 to 100 nM. Work on Nc1nccn2c([C@@H]3CCCN(Cc4ccc[nH]4)C3)nc(-c3ccc(C(=O)Nc4cc(C5CC5)ccn4)cc3)c12 [Example 144, (R)-4-(3-(1-((1H-pyrrol-2-yl)methyl)piperidin-3-yl)-8-aminoimidazo[1,5-a]pyrazin-1-yl)-N-(4-cyclopropylpyridin-2-yl)benzamide, TFA salt] yielded an EC50 of 10 to 100 nM. Nc1nccn2c([C@@H]3CCCN(CC4CCOC4)C3)nc(-c3ccc(C(=O)Nc4cc(C5CC5)ccn4)cc3)c12 (stereo partly drawn) [Example 145, 4-(8-amino-3-((3R)-1-((tetrahydrofuran-3-yl)methyl)piperidin-3-yl)imidazo[1,5-a]pyrazin-1-yl)-N-(4-cyclopropylpyridin-2-yl)benzamide, TFA salt] showed an EC50 of 10 to 100 nM.

Same assay, conditions: read-out: EC50 Btk activity values - Assay Method A; IMAP-FP, 60 min pre-incubation, 5 μM ATP; class 100-1000 is given as ≧100 nM-<1 μM
For CCC(=O)NCC(C)c1nc(-c2ccc(C(=O)Nc3cc(C(F)(F)F)ccn3)cc2)c2c(N)nccn12 (stereo not drawn) [Example 130, 4-(8-amino-3-(1-propionamidopropan-2-yl)imidazo[1,5-a]pyrazin-1-yl)-N-(4-(trifluoromethyl)pyridin-2-yl)benzamide], the EC50 was < 10 nM. In the case of Cn1cc(CN2CCC[C@@H](c3nc(-c4ccc(C(=O)Nc5ccccn5)cc4)c4c(N)nccn34)C2)cn1 [Example 135, (R)-4-(8-amino-3-(1-((1-methyl-1H-pyrazol-4-yl)methyl)piperidin-3-yl)imidazo[1,5-a]pyrazin-1-yl)-N-(pyridin-2-yl)benzamide, TFA salt], the EC50 is reported as < 10 nM. Nc1nccn2c([C@@H]3CCCN(CC(O)CO)C3)nc(-c3ccc(C(=O)Nc4cc(C(F)(F)F)ccn4)cc3)c12 (stereo partly drawn) [Example 139, 4-(8-amino-3-((3R)-1-(2,3-dihydroxypropyl)piperidin-3-yl)imidazo[1,5-a]pyrazin-1-yl)-N-(4-(trifluoromethyl)pyridin-2-yl)benzamide, TFA salt] was tested, and the EC50 was < 10 nM. Nc1nccn2c([C@@H]3CCCN(Cc4ccncc4)C3)nc(-c3ccc(C(=O)Nc4cc(C(F)(F)F)ccn4)cc3)c12 [Example 141, (R)-4-(8-amino-3-(1-(pyridin-4-ylmethyl)piperidin-3-yl)imidazo[1,5-a]pyrazin-1-yl)-N-(4-(trifluoromethyl)pyridin-2-yl)benzamide, TFA salt] was tested, and the EC50 was < 10 nM. Nc1nccn2c([C@@H]3CCCN(CC4CCOC4)C3)nc(-c3ccc(C(=O)Nc4cc(C(F)(F)F)ccn4)cc3)c12 (stereo partly drawn) [Example 142, 4-(8-amino-3-((3R)-1-((tetrahydrofuran-3-yl)methyl)piperidin-3-yl)imidazo[1,5-a]pyrazin-1-yl)-N-(4-(trifluoromethyl)pyridin-2-yl)benzamide, TFA salt] was tested, and the EC50 was < 10 nM.
